The results in this text go back to patent US8669395B2, “Optically active 4-amino-3-(4-chlorophenyl)butanoic acid” (Sumitomo Chemical Company, Limited, priority 2009, dated 2014).

A short description of data set [1]: differential scanning calorimetry (DSC), Test Example 1. The class given is physicochemical. To be noted: for Endothermic peak / Exothermic peak: DSC, 25 to 500° C., 10° C./minute, air-tightly closed SUS container. The protocol:
About the DSC measurement, for example, a differential scanning calorimeter of an EXTER 6000 type, manufactured by SII Nano Technology Inc., is used to make it possible to make the measurement under the following conditions: […]
measuring temperature range: 25 to 500° C., temperature-raising rate: 10° C./minute, container: air-tightly closed SUS, sample amount: about 0.4 to 0.7 mg, reference: α-alumina having a weight of about 0.6 mg, and atmospheric gas flow rate: dried nitrogen, about 70 mL/minute.
About each of crystal A yielded according to the same process in Example 1, and crystal B yielded according to the same process in Comparative Example 1, a device manufactured by SII Nano Technology Inc., EXTER 6000, was used to measure the DSC thereof under differential scanning calorie analysis conditions described below.
(Differential Scanning Calorie Analysis Conditions)

Data set [2] is described as follows: solubility in 100 g of water, Test Example 2. The class given is physicochemical. How it is done:
About each of crystal A yielded according to the same process in Example 1, and crystal B yielded according to the same process in Comparative Example 1, the solubility thereof in 100 g of water was measured.

In turn, `NC[C@H](CC(=O)O)c1ccc(Cl)cc1` [Crystal B, (R)-4-amino-3-(4-chlorophenyl)butanoic acid, reference compound] showed an Endothermic peak in data set [1] of 187 °C. In data set [1], this compound showed an Exothermic peak of 349 °C. Further, the “solubility in 100 g of water” value turned out to be 1.98 g in data set [2] (25° C.), 2.59 g in data set [2] (55° C.) and 2.86 g in data set [2] (75° C.).

In data set [1], `NC[C@H](CC(=O)O)c1ccc(Cl)cc1` [Crystal A, (R)-4-amino-3-(4-chlorophenyl)butanoic acid] showed an Endothermic peak of 203 °C. The compound also showed an Exothermic peak in data set [1] of 386 °C. Moreover, the thermal stability entry in data set [1] (concluded from the DSC endothermic and exothermic peaks, compared with crystal B) is given as “far better in thermal stability than crystal B”. In addition, the figures for the “solubility in 100 g of water” value in data set [2] (25° C.), in data set [2] (40° C.) and in data set [2] (75° C.) were 0.88 g, 1.16 g and 2.20 g, respectively.
